Among the data in patent US20070275962A1, “Heterobicyclic Compounds as Pharmaceutically Active Agents” (GPC BIOTECH AG, priority 2003, published 2007) are inhibition and IC50 values, retold here.

Bounds are passed on as bounds.

T3 sequence (P9WI73 whole entry): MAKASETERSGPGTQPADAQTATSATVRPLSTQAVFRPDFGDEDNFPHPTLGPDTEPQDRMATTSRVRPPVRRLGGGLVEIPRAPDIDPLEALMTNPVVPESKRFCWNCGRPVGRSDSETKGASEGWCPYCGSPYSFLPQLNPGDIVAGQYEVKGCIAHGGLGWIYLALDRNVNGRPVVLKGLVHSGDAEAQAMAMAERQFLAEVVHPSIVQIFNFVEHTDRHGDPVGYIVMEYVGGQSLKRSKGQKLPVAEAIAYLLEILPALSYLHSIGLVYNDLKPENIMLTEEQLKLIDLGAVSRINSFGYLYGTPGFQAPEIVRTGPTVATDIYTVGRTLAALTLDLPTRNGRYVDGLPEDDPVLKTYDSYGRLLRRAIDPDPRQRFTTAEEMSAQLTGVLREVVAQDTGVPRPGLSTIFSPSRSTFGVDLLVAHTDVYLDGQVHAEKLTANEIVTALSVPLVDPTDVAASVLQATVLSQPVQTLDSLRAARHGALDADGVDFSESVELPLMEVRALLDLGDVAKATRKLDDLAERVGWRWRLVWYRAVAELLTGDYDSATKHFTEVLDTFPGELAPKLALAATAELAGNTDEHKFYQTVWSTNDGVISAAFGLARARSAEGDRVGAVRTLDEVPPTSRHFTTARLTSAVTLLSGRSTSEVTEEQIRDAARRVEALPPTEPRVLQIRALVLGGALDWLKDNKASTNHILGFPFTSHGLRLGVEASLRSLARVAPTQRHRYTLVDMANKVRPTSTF
T5 sequence (O43353 whole entry): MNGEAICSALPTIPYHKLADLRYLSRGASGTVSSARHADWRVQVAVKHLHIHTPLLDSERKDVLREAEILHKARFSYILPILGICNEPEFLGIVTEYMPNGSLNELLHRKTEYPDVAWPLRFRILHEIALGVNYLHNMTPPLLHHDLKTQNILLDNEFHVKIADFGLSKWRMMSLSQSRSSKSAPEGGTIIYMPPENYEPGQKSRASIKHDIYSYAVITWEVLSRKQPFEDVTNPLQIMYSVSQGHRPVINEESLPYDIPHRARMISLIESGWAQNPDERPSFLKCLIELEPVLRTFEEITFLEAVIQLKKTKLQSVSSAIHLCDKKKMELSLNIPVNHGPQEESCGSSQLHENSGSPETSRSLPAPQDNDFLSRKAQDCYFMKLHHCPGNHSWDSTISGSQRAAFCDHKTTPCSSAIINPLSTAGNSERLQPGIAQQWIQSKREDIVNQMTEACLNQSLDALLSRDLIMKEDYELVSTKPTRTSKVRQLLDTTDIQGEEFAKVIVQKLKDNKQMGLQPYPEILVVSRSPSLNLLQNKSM
T1 sequence (P49841 whole entry): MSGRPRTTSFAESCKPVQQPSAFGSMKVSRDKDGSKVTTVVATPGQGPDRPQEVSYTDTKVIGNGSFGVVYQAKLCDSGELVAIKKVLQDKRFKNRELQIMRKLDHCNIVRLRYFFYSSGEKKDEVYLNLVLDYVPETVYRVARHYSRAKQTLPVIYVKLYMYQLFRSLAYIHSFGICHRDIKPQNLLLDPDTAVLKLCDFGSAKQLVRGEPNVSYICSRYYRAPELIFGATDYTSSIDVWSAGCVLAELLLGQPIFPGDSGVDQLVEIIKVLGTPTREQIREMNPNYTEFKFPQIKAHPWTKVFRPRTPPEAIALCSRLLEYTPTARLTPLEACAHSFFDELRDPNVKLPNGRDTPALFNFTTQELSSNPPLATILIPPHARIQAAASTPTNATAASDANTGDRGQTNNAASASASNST

One test concerns the target T1, GSK-3beta HIS (Homo sapiens, UniProt P49841).
T1 construct: His
Description: General kinase assay: GSK-3beta. The following applies: concentration 10 μM; read-out: Inhibitory effect on Target GSK-3beta HIS. The test is classed as biochemical. The method, then: (§1) General Assay Protocol for all Kinases [[[…]]] [[[…]]] Reaction Buffer: Final Assay Concentrations: [[[…]]] Pipetting Sequence: • 1) Add 8 μl 50 μM MBP in Reaction Buffer to each well of Assay Plate • 2) Add 10 μl 500 mM EDTA in H2O to C- wells • 3) Add 8 μl 62.5 μCi/ml Adenosine 5'-[γ-^33P]triphosphate+5 μM ATP in Reaction Buffer to each well • 4) Add 8 μl 5 fold concentrated inhibitor in 5% DMSO in Reaction Buffer to each well except to C- and C+ wells • 5) Add 8 μl 5% DMSO in Reaction Buffer to C- and C+ wells • 6) Add 8 μl 5 fold concentrated kinase in Reaction Buffer to each well • 7) Incubate 1 hr at room temperature • 8) Add 10 μl 50 mM EDTA in H2O to each well except to C- wells • 9) Prepare MAPH plates by adding 200 μl 0.75% H3PO4 to each well • 10) Exhaust 0.75% H3PO4 using Millipore vacuum station • 11) Add 60 μl 0.75% H3PO4 to each well of MAPH Filter Plate • 12) Transfer 30 μl sample per well from Assay Plate to corresponding well of MAPH Filter Plate • 13) Incubate 30 min at room temperature • 14) Wash each well of MAPH Filter Plates 3× with 200 μl 0.75% H3PO4 using Millipore vacuum station • 15) Add 20 μl Szintilation Liquid to each well of MAPH Filter Plate • 16) Seal MAPH Filter Plate • 17) Store MAPH Filter Plate 30 min in darkness • 18) Quantify radioactivity
Regarding `NC(=O)c1c(NC(=O)C2CC2)sc2c1CCC(=NO)C2` [Compound D134, 2-(Cyclopropanecarbonyl-amino)-6-hydroxyimino-4,5,6,7-tetrahydro-benzo[b]thiophene-3-carboxylic acid amide], the inhibition at 10 µM is more than 50%.

In the next test the target is T2, CK1-alpha GST (Homo sapiens, UniProt P48729).
T2 construct: GST
T2 sequence (P48729 whole entry): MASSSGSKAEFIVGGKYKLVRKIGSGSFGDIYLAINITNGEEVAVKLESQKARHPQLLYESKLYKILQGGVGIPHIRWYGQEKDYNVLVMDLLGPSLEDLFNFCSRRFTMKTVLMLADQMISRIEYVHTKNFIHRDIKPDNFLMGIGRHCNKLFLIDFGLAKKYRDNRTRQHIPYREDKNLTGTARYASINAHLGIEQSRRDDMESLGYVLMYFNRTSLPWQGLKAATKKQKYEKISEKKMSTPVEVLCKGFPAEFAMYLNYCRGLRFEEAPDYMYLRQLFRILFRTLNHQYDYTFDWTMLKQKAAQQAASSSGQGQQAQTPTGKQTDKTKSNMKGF
Briefly: General kinase assay: CK1-alpha. Type of test: biochemical. The following applies: concentration 10 μM; read-out: Inhibitory effect on Target CK1-alpha GST. The method, then:
as §1
As to `NC(=O)c1c(NC(=O)C2CC2)sc2c1CCC(=NO)C2` [Compound D134, 2-(Cyclopropanecarbonyl-amino)-6-hydroxyimino-4,5,6,7-tetrahydro-benzo[b]thiophene-3-carboxylic acid amide], the inhibition at 10 µM was more than 50%.

`NC(=O)c1c(NC(=O)Nc2ccncc2)sc2c1CCOC2` [Compound B73, 2-(3-Pyridin-4-yl-ureido]-4,7-dihydro-5H-thieno[2,3-c]pyran-3-carboxylic acid amide]: the inhibition at 10 µM is more than 50%.

A further test concerns the target T3, mycobacterial protein kinase G (PknG) (Mycobacterium tuberculosis, UniProt P9WI73).
T3 construct: GST; made in house; host or cells: E. coli BL21
Briefly: biochemical. The following applies: read-out: Inhibition of PknG (IC50, [μM]).
`CC1OCc2sc(NC(=O)C3CC3)c(C(N)=O)c21` (stereo not drawn) [Compound D96, 2-(Cyclopropanecarbonyl-amino)-4-methyl-4,6-dihydro-thieno[2,3-c]furan-3-carboxylic acid amide]: the IC50 (in general, the concentration needed to halve the response being measured) lay in the range of 1.1 to 10 µM. Still for that read-out and setting: with `CC(C)=CC(=O)Nc1sc2c(c1C(N)=O)CCOC2` [Compound B17, 2-(3-Methyl-but-2-enoylamino)-4,7-dihydro-5H-thieno[2,3-c]pyran-3-carboxylic acid amide] the figure was 1.1 to 10 µM; with `CC(C)C(=O)Nc1sc2c(c1C(N)=O)CCOC2` [Compound B2, 2-Isobutyrylamino-4,7-dihydro-5H-thieno[2,3-c]pyran-3-carboxylic acid amide], more than 10 µM; with `NC(=O)c1c(NC(=O)Nc2ccc(I)cc2)sc2c1CCC1(C2)OCCO1` [Compound D175, 2-({[(4-Iodophenyl)amino]carbonyl}amino)-4,7-dihydro-5H-spiro[1-benzothiophene-6,2′-[1,3]dioxolane]-3-carboxamide], 0.1 to 1 µM. The same measure, in the same setting: the value for `NC(=O)c1c(NC(=O)C2CCCC2)sc2c1CCOC2` [Compound B10, 2-(Cyclopentanecarbonyl-amino)-4,7-dihydro-5H-thieno[2,3-c]pyran-3-carboxylic acid amide] was 1.1 to 10 µM.

In the case of `CC1CCc2sc(NC(=O)C3CC3)c(C(N)=O)c2C1` (stereo not drawn) [Compound D37, 2-(Cyclopropanecarbonyl-amino)-5-methyl-4,5,6,7-tetrahydro-benzo[b]thiophene-3-carboxylic acid amide], the IC50 was less than 0.1 µM. Regarding `CC(C)(C)C(=O)Nc1sc2c(c1C(N)=O)CCOC2` [Compound B18, 2-(2,2-Dimethyl-propionylamino)-4,7-dihydro-5H-thieno[2,3-c]pyran-3-carboxylic acid amide], the IC50 was more than 10 µM. Same read-out and setting: the value for `NC(=O)c1c(NC(=O)C2CCC2)sc2c1CCCC2` [Compound D9, 2-(Cyclobutanecarbonylamino)-4,5,6,7-tetrahydro-benzo[b]thiophene-3-carboxylic acid amide] was 1.1 to 10 µM.

As for `Cc1ccccc1CNC(=O)Nc1sc2c(c1C(N)=O)CCSC2` [Compound C33, 2-[3-(2-Methyl-benzyl)-ureido]-4,7-dihydro-5H-thieno[2,3-c]thiopyran-3-carboxylic acid amide], the IC50 is more than 10 µM.

Turning to `NC(=O)c1c(NC(=O)C2CC2)sc2c1CCC/C2=N\OCc1ccccc1` [Compound D72, E-7-Benzyloxyimino-2-(cyclopropanecarbonyl-amino)-4,5,6,7-tetrahydro-benzo[b]thiophene-3-carboxylic acid amide], the IC50 is less than 0.1 µM. Still for that read-out and setting: with `COc1ccc(NC(=O)Nc2sc3c(c2C(N)=O)CCC(=O)C3)cc1` [Compound D106, 2-[3-(4-Methoxy-phenyl)-ureido]-6-oxo-4,5,6,7-tetrahydro-benzo[b]thiophene-3-carboxylic acid amide] the figure was 0.1 to 1 µM; with `CC=CC(=O)Nc1sc2c(c1C(N)=O)CCOC2` [Compound B16, 2-But-2-enoylamino-4,7-dihydro-5H-thieno[2,3-c]pyran-3-carboxylic acid amide], 1.1 to 10 µM.

Take `NC(=O)c1c(NC(=O)Nc2ccc(Oc3ccccc3)cc2)sc2c1CCSC2` [Compound C49, 2-[3-(4-Phenoxy-phenyl)-ureido]-4,7-dihydro-5H-thieno[2,3-c]thiopyran-3-carboxylic acid amide]: the IC50 lay within 1.1 to 10 µM. For `CO/N=C1/CCCc2c1sc(NC(=O)C1CC1)c2C(N)=O` [Compound D88, Z-2-(Cyclopropanecarbonyl-amino)-7-methoxyimino-4,5,6,7-tetrahydro-benzo[b]thiophene-3-carboxylic acid amide], the IC50 is less than 0.1 µM. Same read-out and setting: the value for `NC(=O)c1c(NC(=O)C2CCC2)sc2c1CCOC2` [Compound B15, 2-(Cyclobutanecarbonyl-amino)-4,7-dihydro-5H-thieno[2,3-c]pyran-3-carboxylic acid amide] was 1.1 to 10 µM. Consider `NC(=O)c1c(NC(=O)C2CC2)sc2c1CC[S+]([O-])C2` (stereo not drawn) [Compound C2, 2-(Cyclopropanecarbonyl-amino)-6-oxo-4,5,6,7-tetrahydro-6λ^4-thieno[2,3-c]thiopyran-3-carboxylic acid amide], for which the IC50 was more than 10 µM. The same measure, in the same setting: with `NC(=O)c1c(NC(=O)C2CC2)sc2cc(OCC(=O)NCCO)ccc12` [Compound A8, 2-(Cyclopropanecarbonyl-amino)-6-[(2-hydroxy-ethylcarbamoyl)-methoxy]-benzo[b]thiophene-3-carboxylic acid amide] the figure was 0.1 to 1 µM; with `CCC(C)C(=O)Nc1sc2c(c1C(N)=O)CCOC2` (stereo not drawn) [Compound B14, 2-(2-Methyl-butyrylamino)-4 ,7-dihydro-5H-thieno[2,3-c]pyran-3-carboxylic acid amide], more than 10 µM; with `NC(=O)c1c(NC(=O)C2CC2)sc2c1CCC2` [Compound D196, 2-(Cyclopropanecarbonyl-amino)-5,6-dihydro-4H-cyclopenta[b]thiophene-3-carboxylic acid amide], less than 0.1 µM.

For `CCN(CC)C(=O)c1cc2c(C(N)=O)c(NC(=O)C3CC3)sc2cc1O` [Compound A17, 2-(Cyclopropanecarbonyl-amino)-6-hydroxy-benzo[b]thiophene-3,5-dicarboxylic acid 3-amide-5-diethylamid], the IC50 lay in the range of 1.1 to 10 µM.

As to `NC(=O)c1c(NC(=O)C2CC2)sc2c(Br)c(O)c(Br)cc12` [Compound A38, 5,7-Dibromo-2-(cyclopropanecarbonyl-amino)-6-hydroxy-benzo[b]thiophene-3-carboxylic acid amide], the IC50 is less than 0.1 µM. Same read-out and setting: with `NC(=O)c1c(NC(=O)C2CC2)sc2c1CCOC2` [Compound B1, 2-(Cyclopropanecarbonyl-amino)4,7-dihydro-5H-thieno[2,3-c]pyran-3-carboxylic acid amide] the figure was 0.1 to 1 µM. In the case of `NC(=O)c1c(NC(=O)C2CC2)sc2cc(OCCO)ccc12` [Compound A20, 2-(Cyclopropanecarbonyl-amino)-6-(2-hydroxy-ethoxy)-benzo[b]thiophene-3-carboxylic acid amide], the IC50 is 0.1 to 1 µM. On the same count and under the same terms, the value for `NC(=O)c1c(NC(=O)NCCc2cccs2)sc2c1CCOC2` [Compound B75, 2-[3-(2-Thiophen-2-yl-ethyl)-ureido]-4,7-dihydro-5H-thieno[2,3-c]pyran-3-carboxylic acid amide] was 0.1 to 1 µM; that for `CCOC(=O)N1CCC(NC(=O)Nc2sc3c(c2C(N)=O)CCOC3)CC1` [Compound B181, 4-[3-(3-Carbamoyl-4,7-dihydro-5H-thieno[2,3-c]pyran-2-yl)-ureido]-piperidine-1-carboxylic-acid ethyl ester] was 1.1 to 10 µM; that for `NC(=O)c1c(NC(=O)Nc2ccc3c(c2)OCO3)sc2c1CCC(O)C2` (stereo not drawn) [Compound D212, 2-(3-Benzo[1,3]dioxol-5-yl-ureido)-6-hydroxy-4,5,6,7-tetrahydro-benzo[b]thiophene-3-carboxylic acid amide] was 0.1 to 1 µM. Still for that read-out and setting: with `C=CCNC(=S)Nc1sc2c(c1C(N)=O)CCCC2` [Compound D32, 2-(3-Allyl-thioureido)-4,5,6,7-tetrahydro-benzo[b]thiophene-3-carboxylic acid amide] the figure was 1.1 to 10 µM.

The target of another test is T4, SRPK1 GST (Homo sapiens, UniProt Q96SB4).
T4 construct: GST
T4 sequence (Q96SB4 whole entry): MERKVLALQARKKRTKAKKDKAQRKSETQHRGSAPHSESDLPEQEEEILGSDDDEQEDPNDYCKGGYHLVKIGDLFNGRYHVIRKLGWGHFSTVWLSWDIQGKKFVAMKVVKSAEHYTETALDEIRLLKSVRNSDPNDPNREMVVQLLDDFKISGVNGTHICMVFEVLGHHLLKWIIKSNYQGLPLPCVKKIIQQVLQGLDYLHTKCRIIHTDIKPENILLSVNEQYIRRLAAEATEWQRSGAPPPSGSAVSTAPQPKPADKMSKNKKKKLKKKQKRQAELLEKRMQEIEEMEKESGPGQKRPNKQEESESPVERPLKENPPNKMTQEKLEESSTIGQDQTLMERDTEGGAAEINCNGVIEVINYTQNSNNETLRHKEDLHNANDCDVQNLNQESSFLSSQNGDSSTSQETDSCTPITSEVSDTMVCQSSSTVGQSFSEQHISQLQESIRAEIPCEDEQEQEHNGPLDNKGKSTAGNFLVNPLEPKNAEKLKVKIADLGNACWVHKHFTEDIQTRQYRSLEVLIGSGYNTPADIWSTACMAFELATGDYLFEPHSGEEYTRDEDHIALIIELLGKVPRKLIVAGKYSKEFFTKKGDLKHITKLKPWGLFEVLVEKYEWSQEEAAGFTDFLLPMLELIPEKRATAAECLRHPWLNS
Description: General kinase assay: SRPK1. Type of test: biochemical. The following applies: concentration 10 μM; read-out: Inhibitory effect on Target SRPK1 GST. As for the experimental part:
as §1
For the compound `NC(=O)c1c(NC(=O)Nc2ccncc2)sc2c1CCOC2` [Compound B73, 2-(3-Pyridin-4-yl-ureido]-4,7-dihydro-5H-thieno[2,3-c]pyran-3-carboxylic acid amide], the inhibition at 10 µM is more than 50%.

A further test addresses T5, RICK-STREP 1 (Homo sapiens, UniProt O43353).
T5 construct: Strep
Description: General kinase assay: RICK. The following applies: concentration 10 μM; read-out: Inhibitory effect on Target RICK-STREP 1. The test is classed as biochemical. As for the experimental part: as §1
Regarding `NC(=O)c1c(NC(=O)C2CC2)sc2c1CCC(=NO)C2` [Compound D134, 2-(Cyclopropanecarbonyl-amino)-6-hydroxyimino-4,5,6,7-tetrahydro-benzo[b]thiophene-3-carboxylic acid amide], the inhibition at 10 µM was more than 50%. Same read-out and setting: the value for `NC(=O)c1c(NC(=O)Nc2ccncc2)sc2c1CCOC2` [Compound B73, 2-(3-Pyridin-4-yl-ureido]-4,7-dihydro-5H-thieno[2,3-c]pyran-3-carboxylic acid amide] was more than 50%.
